Reference: ChEMBL document CHEMBL1145029, “Design, synthesis, and evaluation of benzothiadiazepine hydroxamates as selective tumor necrosis factor-alpha converting enzyme inhibitors” (J Med Chem, 2003)

Key:
Interstitial collagenase = target: T1, Interstitial collagenase (Homo sapiens, UniProt P03956); assay: In vitro inhibitory activity against broad spectrum matrix metalloprotease-1 (MMP-1)
T1 sequence (P03956 whole entry): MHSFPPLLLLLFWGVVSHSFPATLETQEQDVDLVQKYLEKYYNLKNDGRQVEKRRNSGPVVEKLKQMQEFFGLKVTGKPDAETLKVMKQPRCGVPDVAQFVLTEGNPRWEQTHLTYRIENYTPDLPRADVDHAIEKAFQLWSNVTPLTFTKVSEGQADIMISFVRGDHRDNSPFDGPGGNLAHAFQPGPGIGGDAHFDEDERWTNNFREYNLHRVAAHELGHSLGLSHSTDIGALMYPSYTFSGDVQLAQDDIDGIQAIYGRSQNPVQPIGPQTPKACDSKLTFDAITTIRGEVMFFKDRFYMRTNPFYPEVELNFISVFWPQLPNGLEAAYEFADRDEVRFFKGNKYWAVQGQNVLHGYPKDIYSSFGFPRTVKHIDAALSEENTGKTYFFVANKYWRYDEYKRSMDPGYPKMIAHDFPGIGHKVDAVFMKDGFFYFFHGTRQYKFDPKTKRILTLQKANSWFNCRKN

[1] = target: 72 kDa type IV collagenase (Homo sapiens, UniProt P08253)
Chain of 72 kDa type IV collagenase (P08253 whole entry): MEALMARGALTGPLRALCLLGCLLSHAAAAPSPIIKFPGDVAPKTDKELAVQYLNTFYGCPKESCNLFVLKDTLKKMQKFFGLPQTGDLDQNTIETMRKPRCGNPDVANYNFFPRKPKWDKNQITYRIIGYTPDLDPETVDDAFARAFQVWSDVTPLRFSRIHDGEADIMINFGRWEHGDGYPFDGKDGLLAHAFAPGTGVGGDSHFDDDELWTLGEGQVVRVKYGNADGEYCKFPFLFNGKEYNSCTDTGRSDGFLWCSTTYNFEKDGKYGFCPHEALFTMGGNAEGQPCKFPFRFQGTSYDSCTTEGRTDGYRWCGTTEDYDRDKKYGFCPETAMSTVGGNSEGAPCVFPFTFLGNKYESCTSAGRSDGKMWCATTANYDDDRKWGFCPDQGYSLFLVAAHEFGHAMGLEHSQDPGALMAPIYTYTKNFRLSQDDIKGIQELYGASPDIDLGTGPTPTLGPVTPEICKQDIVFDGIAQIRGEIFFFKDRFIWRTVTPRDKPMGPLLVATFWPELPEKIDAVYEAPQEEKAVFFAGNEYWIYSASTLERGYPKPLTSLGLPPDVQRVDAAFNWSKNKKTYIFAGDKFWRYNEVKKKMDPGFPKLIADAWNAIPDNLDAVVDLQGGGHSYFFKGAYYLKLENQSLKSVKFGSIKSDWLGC
Description: In vitro inhibitory activity against broad spectrum matrix metalloprotease-2 (MMP-2)

[2] = target: Matrix metalloproteinase-9 (Homo sapiens, UniProt P14780); assay: In vitro inhibitory activity against broad spectrum matrix metalloprotease-9 (MMP-9)
Chain of Matrix metalloproteinase-9 (P14780 whole entry, the tested form may be a part): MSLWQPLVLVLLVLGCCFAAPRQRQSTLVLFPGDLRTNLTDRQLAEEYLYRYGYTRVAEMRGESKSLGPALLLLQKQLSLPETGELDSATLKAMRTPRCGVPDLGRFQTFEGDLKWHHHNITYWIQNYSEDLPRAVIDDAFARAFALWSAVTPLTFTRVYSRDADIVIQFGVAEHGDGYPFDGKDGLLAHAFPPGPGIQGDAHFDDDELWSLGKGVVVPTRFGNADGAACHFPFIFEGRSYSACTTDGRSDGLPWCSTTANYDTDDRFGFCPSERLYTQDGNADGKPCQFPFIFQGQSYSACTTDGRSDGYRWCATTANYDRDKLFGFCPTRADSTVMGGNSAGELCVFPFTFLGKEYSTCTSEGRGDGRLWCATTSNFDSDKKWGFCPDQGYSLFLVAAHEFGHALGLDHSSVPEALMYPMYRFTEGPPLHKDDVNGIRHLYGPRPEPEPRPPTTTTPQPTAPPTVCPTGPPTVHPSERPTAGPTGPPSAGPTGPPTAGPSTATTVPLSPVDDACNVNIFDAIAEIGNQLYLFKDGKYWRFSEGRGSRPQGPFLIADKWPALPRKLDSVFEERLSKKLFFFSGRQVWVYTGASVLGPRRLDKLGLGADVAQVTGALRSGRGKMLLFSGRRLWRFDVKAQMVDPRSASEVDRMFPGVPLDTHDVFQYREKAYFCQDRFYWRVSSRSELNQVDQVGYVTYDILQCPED

[3] = target: T2, Disintegrin and metalloproteinase domain-containing protein 17 (Homo sapiens, UniProt P78536); assay: Ability to suppress the formation of TNF-aplha in human peripheral blood mononuclear cell assay(PBMC); format: functional
T2 sequence (P78536 whole entry, the tested form may be a part): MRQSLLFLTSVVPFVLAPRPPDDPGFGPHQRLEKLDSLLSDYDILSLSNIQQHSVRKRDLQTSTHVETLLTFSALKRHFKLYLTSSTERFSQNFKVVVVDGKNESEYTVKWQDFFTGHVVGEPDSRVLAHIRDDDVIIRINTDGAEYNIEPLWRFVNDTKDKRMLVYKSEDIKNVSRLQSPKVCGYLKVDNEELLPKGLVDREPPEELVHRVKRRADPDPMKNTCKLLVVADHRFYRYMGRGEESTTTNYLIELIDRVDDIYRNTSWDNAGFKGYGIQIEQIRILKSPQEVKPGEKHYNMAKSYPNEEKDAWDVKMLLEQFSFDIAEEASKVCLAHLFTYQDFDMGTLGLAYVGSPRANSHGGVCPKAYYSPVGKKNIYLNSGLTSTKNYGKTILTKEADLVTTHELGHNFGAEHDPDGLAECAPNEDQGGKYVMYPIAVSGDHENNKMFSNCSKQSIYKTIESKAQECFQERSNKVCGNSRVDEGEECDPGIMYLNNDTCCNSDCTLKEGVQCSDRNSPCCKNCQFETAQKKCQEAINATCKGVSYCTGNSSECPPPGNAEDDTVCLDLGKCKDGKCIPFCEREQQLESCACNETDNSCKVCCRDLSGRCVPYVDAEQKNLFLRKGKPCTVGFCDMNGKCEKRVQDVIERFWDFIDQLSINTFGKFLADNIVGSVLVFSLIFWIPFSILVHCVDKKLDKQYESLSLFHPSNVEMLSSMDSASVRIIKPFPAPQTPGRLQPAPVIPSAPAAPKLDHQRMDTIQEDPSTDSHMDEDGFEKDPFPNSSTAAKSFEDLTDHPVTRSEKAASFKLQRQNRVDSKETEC

[4] = target: T2, Disintegrin and metalloproteinase domain-containing protein 17; assay: Ability to suppress the formation of TNF-aplha in human whole blood assay (WBA); format: functional, tissue-based

SMILES	Ki (Interstitial collagenase)	Ki [1]	Ki [2]	IC50 [3]	IC50 [4]
COc1ccc2c(c1)NCN([C@H](C)C(=O)NO)S2(=O)=O	> 4950 nM	312 nM	1050 nM	–	–
Cc1cc(C)cc(COc2ccc3c(c2)NCCN([C@H](C)C(=O)NO)S3(=O)=O)c1	> 4950 nM	136 nM	> 2130 nM	–	–
O=C(CN1CCNc2ccccc2S1(=O)=O)NO	> 4950 nM	1920 nM	> 2130 nM	–	–
CCOc1cc(COc2ccc3c(c2)NCCN([C@@H](C(=O)NO)C(C)C)S3(=O)=O)cc(OCC)c1	> 4950 nM	3000 nM	> 2130 nM	8200 nM	–
CCOc1cc(COc2ccc3c(c2)NCCN([C@H](C)C(=O)NO)S3(=O)=O)cc(OCC)c1	> 4950 nM	690 nM	> 2130 nM	4500 nM	–
C[C@H](C(=O)NO)N1CCNc2cc(-c3ccccc3)ccc2S1(=O)=O	272 nM	< 2.8 nM	8 nM	–	–
COc1cc(COc2ccc3c(c2)NCCN([C@H](C)C(=O)NO)S3(=O)=O)cc(OC)c1	> 4950 nM	491 nM	> 2130 nM	770 nM	28000 nM
COc1ccc(Oc2ccc3c(c2)NCCN([C@H](C)C(=O)NO)S3(=O)=O)cc1	> 4950 nM	< 2.8 nM	< 2.1 nM	–	–
COc1cc(COc2ccc3c(c2)NCCN([C@H](CCCCNS(C)(=O)=O)C(=O)NO)S3(=O)=O)cc(OC)c1	> 4950 nM	391 nM	> 2130 nM	1900 nM	38000 nM
COC(=O)CCC[C@H](C(=O)NO)N1CCNc2cc(OCc3cc(OC)cc(OC)c3)ccc2S1(=O)=O	> 4950 nM	332 nM	> 2130 nM	900 nM	–
C[C@H](C(=O)NO)N1CCNc2cc(Oc3ccc(-c4ccccc4)cc3)ccc2S1(=O)=O	2020 nM	< 2.8 nM	< 2.1 nM	–	–
COc1cc(COc2ccc3c(c2)NCCN([C@H](CC(C)C)C(=O)NO)S3(=O)=O)cc(OC)c1	> 4950 nM	154 nM	> 2130 nM	5400 nM	–
Cc1cc(COc2ccc3c(c2)NCCN([C@H](C)C(=O)NO)S3(=O)=O)cc(C)n1	> 4950 nM	75 nM	1840 nM	2900 nM	–
C[C@H](C(=O)NO)N1CCNc2cc(Oc3ccc([N+](=O)[O-])cc3)ccc2S1(=O)=O	> 4950 nM	8 nM	19 nM	1200 nM	15000 nM
C[C@H](C(=O)NO)N1CCNc2cc(Oc3ccccc3)ccc2S1(=O)=O	> 4950 nM	23 nM	3 nM	–	–
C[C@H](C(=O)NO)N1CCNc2cc(OCc3cc(Cl)cc(Cl)c3)ccc2S1(=O)=O	> 4950 nM	49 nM	1210 nM	940 nM	–
COc1ccc2c(c1)NCCN(CC(=O)NO)S2(=O)=O	> 4950 nM	1500 nM	> 2130 nM	–	–
CC(C)C[C@H](C(=O)NO)N1CCNc2cc(OCc3ccccc3)ccc2S1(=O)=O	548 nM	< 2.8 nM	< 2.1 nM	350 nM	–

SMILES	Ki (Interstitial collagenase)	Ki [1]	Ki [2]	IC50 [3]	IC50 [4]
COc1ccc2c(c1)NCCN([C@@H](C(=O)NO)C(C)C)S2(=O)=O	732 nM	52 nM	751 nM	–	–
C[C@H](C(=O)NO)N1CCNc2cc(OCc3ccccc3)ccc2S1(=O)=O	> 4950 nM	< 2.8 nM	3.6 nM	–	–
CCOc1cc(COc2ccc3c(c2)NCCN([C@H](CCC(=O)OC)C(=O)NO)S3(=O)=O)cc(OCC)c1	> 4950 nM	960 nM	> 2130 nM	6200 nM	–
C[C@H](C(=O)NO)N1CCNc2cc(-c3ccccc3C(F)(F)F)ccc2S1(=O)=O	> 4950 nM	2520 nM	> 2130 nM	–	–
COC(=O)CC[C@H](C(=O)NO)N1CCNc2cc(OCc3cc(OC)cc(OC)c3)ccc2S1(=O)=O	> 4950 nM	1590 nM	> 2130 nM	7200 nM	–
Cc1nc(COc2ccc3c(c2)NCCN([C@@H](C(=O)NO)C(C)C)S3(=O)=O)sc1C	> 4950 nM	361 nM	> 2130 nM	24500 nM	–
CCOc1cc(COc2ccc3c(c2)NCCN([C@H](CCCC(=O)OC)C(=O)NO)S3(=O)=O)cc(OCC)c1	> 4950 nM	1380 nM	> 2130 nM	1100 nM	24000 nM
COc1cc(COc2ccc3c(c2)NCCN([C@@H](C(=O)NO)C(C)C)S3(=O)=O)cc(OC)c1	> 4950 nM	647 nM	981 nM	4000 nM	–
COc1cc(CNc2ccc3c(c2)NCCN([C@H](CC(C)C)C(=O)NO)S3(=O)=O)cc(OC)c1	> 4950 nM	75 nM	347 nM	–	–
COc1cc(COc2ccc3c(c2)NCCN([C@H](CCCCN)C(=O)NO)S3(=O)=O)cc(OC)c1	> 4950 nM	231 nM	> 2130 nM	–	–
C[C@H](C(=O)NO)N1CCNc2cc(O)ccc2S1(=O)=O	980 nM	< 2.8 nM	100 nM	–	–
C[C@H](C(=O)NO)N1CCNc2cc(Oc3ccc(C(F)(F)F)cc3)ccc2S1(=O)=O	> 4950 nM	< 2.8 nM	7 nM	840 nM	–
C[C@H](C(=O)NO)N1CCNc2cc(Oc3cccc([N+](=O)[O-])c3)ccc2S1(=O)=O	> 4950 nM	85 nM	96 nM	470 nM	1400 nM
C[C@H](C(=O)NO)N1CCNc2ccccc2S1(=O)=O	> 4950 nM	75 nM	567 nM	–	–
Cc1cc(C)cc(C(=O)Nc2ccc3c(c2)NCCN([C@H](C)C(=O)NO)S3(=O)=O)c1	> 4950 nM	94 nM	993 nM	–	–
COc1cc(COc2ccc3c(c2)NCCN([C@H](CCCCNC(=O)OC(C)(C)C)C(=O)NO)S3(=O)=O)cc(OC)c1	> 4950 nM	32 nM	118 nM	–	–
COc1ccc2c(c1)NCCN([C@H](C)C(=O)NO)S2(=O)=O	1060 nM	–	104 nM	–	–
CC(C)C[C@H](C(=O)NO)N1CCNc2cc(O)ccc2S1(=O)=O	479 nM	11 nM	80 nM	9500 nM	–
